Measurements as given in ChEMBL document CHEMBL5032511, “Improving Druggability of Novel Diarylpyrimidine NNRTIs by a Fragment-Based Replacement Strategy: From Biphenyl-DAPYs to Heteroaromatic-Biphenyl-DAPYs” (J Med Chem, 2021).

Experiments:
[1] = test system: Human immunodeficiency virus 1; assay: Anti-viral activity against HIV1 harboring RT E138K mutant infected […] cells assessed as protection against virus-induced cytopathic effect by MTT assay; type: functional, organism-based; settings: Human immunodeficiency virus 1, MT4
[2] = test system: Human immunodeficiency virus 1; assay: Anti-viral activity against HIV1 harboring RT K103N mutant infected […] cells assessed as protection against virus-induced cytopathic effect by MTT assay; type: functional, organism-based; settings: Human immunodeficiency virus 1, MT4
[3] = target: Human immunodeficiency virus type 1 reverse transcriptase (Human immunodeficiency virus 1, UniProt Q72547); assay: Inhibition of recombinant wild-type HIV1 p66/p51 reverse transcriptase assessed as inhibition of [3H][…] incorporation using poly (rA) as templates incubated for 40 mins by spectrofluorometer
[4] = test system: Human immunodeficiency virus 1; assay: Anti-viral activity against HIV1 harboring RT L100I mutant infected […] cells assessed as protection against virus-induced cytopathic effect by MTT assay; type: functional, organism-based; settings: Human immunodeficiency virus 1, MT4
[5] = test system: Human immunodeficiency virus 1; assay: Antiviral activity against HIV1 IIIB infected human MT4 cells assessed as protection against virus-induced cytopathic effect by MTT assay; type: functional, organism-based; settings: Human immunodeficiency virus 1, IIIB
[6] = Cytotoxicity against mock infected human MT4 cells by MTT assay
[7] = Selectivity index, ratio of CC50 for mock infected human MT4 cells to IC50 for HIV1 IIIB infected human MT4 cells
[8] = test system: Human immunodeficiency virus 1; assay: Anti-viral activity against HIV1 harboring RT Y181C mutant infected […] cells assessed as protection against virus-induced cytopathic effect by MTT assay; type: functional, organism-based; settings: Human immunodeficiency virus 1, MT4
[9] = test system: Human immunodeficiency virus 1; assay: Anti-viral activity against HIV1 harboring RT Y188L mutant infected […] cells assessed as protection against virus-induced cytopathic effect by MTT assay; type: functional, organism-based; settings: Human immunodeficiency virus 1, MT4

Compound	EC50 [1] [nM]	EC50 [2] [nM]	IC50 [3] [nM]	EC50 [4] [nM]	EC50 [5] [nM]	CC50 [6] [µM]	selectivity ratio [7]	EC50 [8] [nM]	EC50 [9] [nM]
N#Cc1ccc(Nc2nccc(Nc3c(F)cc(-c4cncnc4)cc3F)n2)cc1	137	326	87	1790	11.9	2.7	229		
N#Cc1ccc(Nc2nccc(Nc3c(F)cc(-c4cccnc4)cc3F)n2)cc1	149	223	58	583	7.4	242	32700	473	
N#Cc1ccc(Nc2nccc(Nc3c(F)cc(-c4cc(F)nc(F)c4)cc3F)n2)cc1	57	199	13	898	5.6	11	1970	476	
N#Cc1ccc(Nc2nccc(Nc3c(F)cc(-c4ccnc(F)c4F)cc3F)n2)cc1	13.5	11.5	8.3	63	2	> 286	> 147000	21.3	1640
COc1cc(-c2cc(F)c(Nc3ccnc(Nc4ccc(C#N)cc4)n3)c(F)c2)ccn1	260	239	30	645	13	6.7	501	389	
N#Cc1ccc(Nc2nccc(Nc3c(F)cc(-c4ccncc4)cc3F)n2)cc1	4	8	7.4	20.4				15	417
Cc1cc(-c2cc(F)c(Nc3ccnc(Nc4ccc(C#N)cc4)n3)c(F)c2)ccn1	52	77.7	29	383	4.1	3.2	777	144	1090
N#Cc1ccc(Nc2nccc(Nc3c(F)cc(-c4csc5ccccc45)cc3F)n2)cc1	601	5790	59	6450	124	16	132	6210	7480
N#Cc1ccc(Nc2nccc(Nc3c(F)cc(-c4ccc(N)cc4)cc3F)n2)cc1	37	144	37	561	9.2	> 303	> 32900	482	1180
N#Cc1ccc(Nc2nccc(Nc3c(F)cc(-c4ccsc4)cc3F)n2)cc1	14	171	11	301	3.9	55.4	14000	212	1040
N#Cc1ccc(Nc2nccc(Nc3c(F)cc(-c4ccco4)cc3F)n2)cc1	10	71	10	86	2.1	16.6	7910	84	2170
N#Cc1ccc(Nc2nccc(Nc3c(F)cc(-c4ccnc(-c5ccnc(Cl)c5)c4)cc3F)n2)cc1	160	176	110	1150	16.8	51	3070	779	
N#Cc1ccc(Nc2nccc(Nc3c(F)cc(-c4cn[nH]c4)cc3F)n2)cc1	101	251	43		10	3.1	298		
Cc1cc(C#Cc2ccccn2)cc(C)c1Oc1ccnc(Nc2ccc(C#N)cc2)n1					3				
N#Cc1ccc(Nc2nccc(Nc3c(F)cc(-c4ccncc4F)cc3F)n2)cc1	2.3	1.9	9.1	7.4	1.3	3.3	2570	7	92
N#Cc1ccc(Nc2nccc(Nc3c(F)cc(-c4ccnc(F)c4)cc3F)n2)cc1	14.3	42	11	397	3.8	5	1310	80	1260
N#Cc1ccc(Nc2nccc(Nc3c(F)cc(-c4ccnc(Cl)c4Cl)cc3F)n2)cc1	39	48	16	325	5.5	20	3670	73	1640
N#Cc1ccc(Nc2nccc(Nc3c(F)cc(-c4coc5ccccc45)cc3F)n2)cc1	335	1300	28	3450	44	87	1990	2750	6340
Cc1cc(C#Cc2ccccc2)cc(C)c1Oc1ccnc(Nc2ccc(C#N)cc2)n1					38				
N#Cc1ccc(Nc2nccc(Nc3c(F)cc(-c4ccnc(Cl)c4)cc3F)n2)cc1	61	101	14	415	6.8	4.2	622	254	> 1540
Cc1cc(-c2cc(F)c(Nc3ccnc(Nc4ccc(C#N)cc4)n3)c(F)c2)cc(C)n1			336		56	1.2	21		
N#Cc1ccc(Nc2nccc(Nc3c(F)cc(-c4ccoc4)cc3F)n2)cc1	13	35	10	100	3.2	10.6	3290	114	2180
N#Cc1ccc(Nc2nccc(Nc3c(F)cc(-c4cc(Cl)nc(Cl)c4)cc3F)n2)cc1	311	1090	96		56	5.4	97		
N#Cc1ccc(Nc2nccc(Nc3c(F)cc(-c4cccs4)cc3F)n2)cc1	11	102	5.9	363	4.1	> 308	> 74600	136	1130
O=C1Nc2ccc(Cl)cc2[C@@](C#CC2CC2)(C(F)(F)F)O1 [EFAVIRENZ]	7.5					> 6.33			269
Cc1ccnc2c1NC(=O)c1cccnc1N2C1CC1 [NEVIRAPINE]	288					> 15			
